Assay results reported in patent US11352316B2, “Opioid receptor modulators and products and methods related thereto” (priority 2018, dated 2022).

What was measured:
[1] = biological target: T1, mu opioid receptor (MOR) (Homo sapiens, UniProt P35372); assay: MOR GTPγS agonist assay (membranes, SPA beads); format: biochemical; conditions: membranes of CHO-K1 cells over-expressing MOR
T1 construct: host or cells: CHO-K1
Description: Membranes obtained from the stable cell lines over-expressing MOR were subjected to GTPγS assay using SPA beads (Perkin Elmer, Cat #RPNQ0001).

[2] = tested on: Male Sprague-Dawley rats; assay: Hot plate assay; format: in vivo; conditions: rat, SC
Protocol: Male Sprague-Dawley rats weighing 275-300 grams were used in the study, n=8-10 per group. Animals are injected SC with 0.9% normal saline solution. At 15, 45, and 80 min after the injection, animals were placed onto a hotplate set to 52 degrees centigrade, and baseline latency is recorded (baseline latency=average time to 2nd withdrawal response consisting of either a lick of a rear paw, shaking a rear paw, backwards walking or jumping). A day later animals were injected SC with test compounds either in vehicle solution, or with a mix of compounds in solution. Next the test latency was recorded (test latency=time to withdrawal on the hotplate measured at 15, 45, 80, 120, 180 and 240 min using the procedure described). Times were then converted to % maximum possible effect (% MPE)=(test_latecy−baseline_latency)/(30 sec−baseline_latency); where 30 sec is the cutoff where the animal is removed if no response ifs observed as it is the time point at which injury is expected to occur.

T1 sequence (P35372 whole entry): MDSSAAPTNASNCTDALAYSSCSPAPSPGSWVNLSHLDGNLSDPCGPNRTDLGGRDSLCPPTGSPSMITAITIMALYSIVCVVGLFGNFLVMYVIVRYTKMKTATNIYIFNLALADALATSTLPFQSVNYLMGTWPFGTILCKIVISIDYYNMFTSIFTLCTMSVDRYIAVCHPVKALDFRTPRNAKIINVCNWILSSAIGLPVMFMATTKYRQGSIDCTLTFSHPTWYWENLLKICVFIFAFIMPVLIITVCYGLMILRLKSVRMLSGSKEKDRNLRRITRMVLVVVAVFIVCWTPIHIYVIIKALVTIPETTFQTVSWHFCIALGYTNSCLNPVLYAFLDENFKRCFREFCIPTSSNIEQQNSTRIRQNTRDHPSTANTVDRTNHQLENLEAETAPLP

Compound: CNC(=O)c1ccc(C[C@@H](CNC(=O)c2ccc(Cl)cc2Cl)N(C)C)cc1F [Compound C-37, (S)-2,4-dichloro-N-(2-(dimethylamino)-3-(3-fluoro-4-(methylcarbamoyl)phenyl)propyl) benzamide]
- EC50 [1]: < 100 nM

Compound: CNC(=O)c1cc(C)c(C[C@@H](CNC(=O)c2ccccc2OC)N(C)C)c(C)c1 [Compound C-68, (S)-4-(2-(dimethylamino)-3-(2-methoxybenzamido)propyl)-N,3,5-trimethylbenzamide]
- EC50 [1]: < 100 nM

Compound: CN(C)[C@H](CNC(=O)[C@@H]1C[C@]1(C)c1ccccc1)Cc1ccc(O)cc1Cl [Compound B-15, (1R,2S)—N—((S)-3-(2-chloro-4-hydroxyphenyl)-2-(dimethylamino)propyl)-2-methyl-2-phenylcyclopropane-1-carboxamide]
- effect on the analgesic activity of agonist Compound B-56 in the hotplate test ([2]; co-dosed with Compound B-56, FIG. 1): blocks in vivo the analgesic activity of the agonist Compound B-56
- effect on its own in the hotplate test ([2]; dosed alone, FIG. 1): no effect on its own

Compound: Cc1cc(O)ccc1C[C@@H](CNC(=O)[C@@H]1C[C@@]1(C)c1ccccc1)N(C)C [Compound B-56, (1R,2R)—N—((S)-2-(dimethylamino)-3-(4-hydroxy-2-methylphenyl)propyl)-2-methyl-2-phenylcyclopropane-1-carboxamide]
- analgesic activity in the hotplate test (time to withdrawal response, % MPE) ([2]; hotplate 52 degrees centigrade, FIG. 1): analgesic
